Read-outs that look alike come from different tables or passages of the source.
How the values were obtained:
Notch3 in HCT116 cells = assay: immunoblot with Notch3 antibody; details: HCT116, IC50 concentration, 12 h and 24 h
Description: Data are presented as the mean±standard deviation (SEM/SD) of three independent experiments. The Student's t-test was used to calculate the statistical significance between the vehicle and treatment at each concentration. *p<0.05 and **p<0.01.

[1] = test system: Notch1/HCT116 (C4) xenografts; assay: xenograft tumor growth study; details: 5 mg/kg intraperitoneally thrice a week, 4 weeks
Description: (§2) Xenograft studies: Six- to eight-week-old BALB/c athymic nude mice (nu/nu) (Jackson Laboratory: Bar Harbor, Me., USA) were subcutaneously injected with pCMV/HCT116 and C4 (1×10^6 cells). The monitoring and measurements were performed.

SW-620 cells [2] = details: read-out: IC50 cell viability
Description: (§3) Six biological replicates used for MTT assays and it was repeated twice for each experiment. […] The anchorage-independent growth assay was performed and repeated in triplicate.

MDA-MB-231 TNBC cells = assay: cell viability assay; assay type: cell-based; details: for IC50: read-out: IC50 cell growth
Description: Synergistic effects of combinations were calculated via isobologram analysis.

Notch1/HCT116 clone C4 = details: C4, IC50 concentration
Description: (§1) Flow cytometry analysis: 0.3×10^6 cells seeded in a 6 well plate and were cultured until 70-80% confluence was achieved. […] To quantify apoptosis, flow cytometry analysis of the Annexin V-FITC against Propidium Iodide (PI) assay was performed following a previously described protocol. The Apoptosis detection kit was purchased from BD Pharminogen™, San Diego, Calif., USA. All experiments were repeated in triplicate to achieve statistical relevance.

HCT116 cells [3] = details: HCT116, 24 h
Description: as §1

SW-620 cells [4] = details: SW-620, 24 h
Description: as §1

pCMV/HCT116 cells = details: pCMV/HCT116, IC50 concentration
Description: as §1

Notch1/HCT116 clone C5 = details: C5, IC50 concentration
Description: as §1

[5] = test system: Bladder Cancer cells (TCCSUP and HT1376); assay: MTT assay in bladder cancer cells with low basal Notch1; details: low basal level of Notch1, 24 h
Description: Six biological replicates used for MTT assays and it was repeated twice for each experiment. Data are presented, from independent experiments, as the mean±standard deviation (SEM/SD). The Student's t-test was used to calculate the statistical significance between the vehicle and treatment at each concentration. *p<0.05, **p<0.01 and ***p<0.001. […] Six biological replicates used for MTT assays and it was repeated twice for each experiment. Data are presented, from independent experiments, as the mean±standard deviation (SEM/SD). The Student's t-test was used to calculate the statistical significance between the vehicle and treatment at each concentration. *p<0.05 and # Not significant.
Six biological replicates used for MTT assays and it was repeated twice for each experiment.

[6] = test system: proteasome in ALDH+ cells; details: 15 and 30 min
Text: Commercially available positive and negative controls were used for these experiments. […] Next, ubiquitination-associated NRR of Notch 1 degradation were examined.

pCMV/HCT116 xenografts = assay: xenograft tumor growth study; details: 5 mg/kg intraperitoneally thrice a week, 4 weeks
Description: as §2

HCT116 cells [7] = details: read-out: IC50 cell viability
Description: as §3

## CC1=C(CO)C(=O)O[C@@H]([C@@H](C)[C@H]2CC[C@H]3[C@@H]4C[C@H]5O[C@]56[C@@H](OC(=O)c5ccccn5)C=CC(=O)[C@]6(C)[C@H]4CC[C@]23C)C1 [ASR490, Pyridine-2-carboxylic acid {17-[1-(5-hydroxymethyl-4-methyl-6-oxo-3,6-dihydro-2H-pyran-2-yl)-ethyl]-10,13-dimethyl-1-oxo, 4,6,7,8,9,10,11,12,13,14,15,16,17-tetradecahydro-20-oxacyclopropa[5,6]cyclopenta[a]phenanthren-4-yl}ester]
Notch3 in HCT116 cells
  Notch3 expression: no change
[1]
  tumor growth: significant tumor growth inhibition
SW-620 cells [2]; SW-620, 24-h
  IC50: 1200 nM
SW-620 cells [2]; SW-620, 48-h
  IC50: 850 nM
500 mg/kg vs 5 mg/kg
  safe dose relative to dose used in efficacy studies: 100 times
nu/nu mice
  safe dose (MTD check): ≤ 500 mg/kg
MDA-MB-231 TNBC cells; MDA-MB-231, 24 h
  IC50: 760 nM
MDA-MB-231 TNBC cells; MDA-MB-231, 48 h
  IC50: 444 nM
MDA-MB-231 TNBC cells; ⅕th of IC50 of ASR490 (152 nM) in combination with 1/20th of IC50 of DOX (46.4 nM)
  inhibition of proliferation by combination: 30%
MDA-MB-231 TNBC cells; ⅕th of IC50 of ASR490 alone
  growth inhibition alone: did not inhibit the growth
Notch1/HCT116 clone C4
  induction of apoptosis: 13.4%
HCT116 cells [3]
  induction of apoptosis: 19.9%
SW-620 cells [4]
  induction of apoptosis: 9.57%
pCMV/HCT116 cells
  induction of apoptosis: 25.8%
Notch1/HCT116 clone C5
  induction of apoptosis: 13.2%
[5]
  growth of bladder cancer cells: failed inhibit their growth
[6]
  proteasome inhibition: not a proteasomal inhibitor
pCMV/HCT116 xenografts
  tumor growth: significant tumor growth inhibition
HCT116 cells [7]; HCT 116, 24-h
  IC50: 750 nM
HCT116 cells [7]; HCT 116, 48-h
  IC50: 600 nM

— patent US20230103142A1, “SMALL MOLECULE REGULATORS OF NOTCH1 AND USES THEREOF” (THE PENN STATE RESEARCH FOUNDATION, priority 2020, published 2023)
